Assays:
Conditions in all cases: 72 h
Caco-2 [1] = assay: cell viability relative to DMSO; higher = less toxic
Calu-3 [2] = assay: as above
HepG2 [3] = assay: as above
U2OS [4] = assay: as above
Vero E6 [5] = assay: as above
Caco-2 [6] = assay: relative viability EC50 (midpoint between 100% and the lowest measured viability); higher = less toxic
Calu-3 [7] = assay: as above
HepG2 [8] = assay: as above
U2OS [9] = assay: as above
Vero E6 [10] = assay: as above
Caco-2 [11] = assay: drug sensitivity score (DSS) for viability; higher = more toxic; extreme values may be limits of the assay
Calu-3 [12] = assay: as above
HepG2 [13] = assay: as above
U2OS [14] = assay: as above
Vero E6 [15] = assay: as above

| SMILES | cell viability (Caco-2 [1]; 1 nM) | cell viability (Caco-2 [1]; 10 nM) | cell viability (Caco-2 [1]; 100 nM) | cell viability (Caco-2 [1]; 1000 nM) | cell viability (Caco-2 [1]; 10000 nM) | cell viability (Calu-3 [2]; 1 nM) | cell viability (Calu-3 [2]; 10 nM) | cell viability (Calu-3 [2]; 100 nM) | cell viability (Calu-3 [2]; 1000 nM) | cell viability (Calu-3 [2]; 10000 nM) | cell viability (HepG2 [3]; 1 nM) | cell viability (HepG2 [3]; 10 nM) | cell viability (HepG2 [3]; 100 nM) | cell viability (HepG2 [3]; 1000 nM) | cell viability (HepG2 [3]; 10000 nM) | cell viability (U2OS [4]; 1 nM) | cell viability (U2OS [4]; 10 nM) | cell viability (U2OS [4]; 100 nM) | cell viability (U2OS [4]; 1000 nM) | cell viability (U2OS [4]; 10000 nM) | cell viability (Vero E6 [5]; 1 nM) | cell viability (Vero E6 [5]; 10 nM) | cell viability (Vero E6 [5]; 100 nM) | cell viability (Vero E6 [5]; 1000 nM) | cell viability (Vero E6 [5]; 10000 nM) | relative viability EC50 (Caco-2 [6]) | relative viability EC50 (Calu-3 [7]) | relative viability EC50 (HepG2 [8]) | relative viability EC50 (U2OS [9]) | relative viability EC50 (Vero E6 [10]) | drug sensitivity score (Caco-2 [11]) | drug sensitivity score (Calu-3 [12]) | drug sensitivity score (HepG2 [13]) | drug sensitivity score (U2OS [14]) | drug sensitivity score (Vero E6 [15]) |
| --- | --- | --- | --- | --- | --- | --- | --- | --- | --- | --- | --- | --- | --- | --- | --- | --- | --- | --- | --- | --- | --- | --- | --- | --- | --- | --- | --- | --- | --- | --- | --- | --- | --- | --- | --- |
| CCn1c(=O)[nH]c2ccccc21 [1-EBIO] | 94.4% | 93.5% | 98% | 100% | 91% | 99.1% | 105% | 104% | 106% | 81.8% | 96.7% | 98.6% | 91.4% | 84% | 110% | 95.7% | 94.3% | 104% | 98.4% | 93.2% | 97.4% | 97.5% | 89.7% | 98.2% | 104% | > 10 µM | > 10 µM | > 10 µM | > 10 µM | > 10 µM | 0 | 0.3 | 0 | 0 | 0 |
| O=C(NC1CCC1)c1ccc(C#Cc2cccc(F)c2)nc1 | 92.4% | 102% | 96.5% | 98.9% | 95.4% | 96.1% | 98.6% | 98.8% | 103% | 90.7% | 91.7% | 93.9% | 89.4% | 85.8% | 93% | 104% | 102% | 96.3% | 100% | 91.6% | 98.6% | 98.5% | 96.8% | 90% | 92.1% | > 10 µM | > 10 µM | > 10 µM | > 10 µM | > 10 µM | 0 | 0 | 0 | 0 | 0 |
| CSc1cc2c(cc1C(F)(F)F)N(C(=O)Nc1cccnc1)CC2 | 103% | 101% | 95.5% | 97.5% | 97.9% | 106% | 83.3% | 93.2% | 91.2% | 107% | 109% | 95.6% | 85% | 99% | 94.7% | 100% | 99.6% | 108% | 98.9% | 101% | 102% | 104% | 96.5% | 102% | 102% | > 10 µM | > 10 µM | > 10 µM | > 10 µM | > 10 µM | 0 | 0 | 0 | 0 | 0 |
| Cc1c(C(N)=O)cc([N+](=O)[O-])cc1[N+](=O)[O-] [dinitolmide] | 101% | 97.6% | 102% | 95.1% | 105% | 99.4% | 105% | 101% | 100% | 103% | 104% | 104% | 106% | 99.7% | 102% | 111% | 105% | 105% | 93.5% | 92.3% | 102% | 101% | 98.8% | 98.3% | 97.4% | > 10 µM | > 10 µM | > 10 µM | > 10 µM | > 10 µM | 0 | 0 | 0 | 0 | 0 |
| CN(C)CCCOc1nn(Cc2ccccc2)c2ccccc12 [benzydamine] | 86.2% | 94.3% | 73.1% | 80.3% | 87.1% | 98.8% | 91.7% | 95.6% | 101% | 90.5% | 97.7% | 102% | 95.1% | 91.4% | 89.8% | 101% | 96.5% | 100% | 95.6% | 91.2% | 98.7% | 105% | 98.3% | 96.9% | 85.5% | > 10 µM | > 10 µM | > 10 µM | > 10 µM | > 10 µM | 0 | 0 | 0 | 0 | 0.5 |
| CC(c1cc2ccccc2s1)N(O)C(N)=O (stereo not given) [zileuton] | 93.7% | 96.3% | 93.3% | 100% | 91% | 89.5% | 90.6% | 102% | 96.1% | 94.6% | 109% | 95.1% | 101% | 94.2% | 102% | 97.1% | 98.7% | 96.9% | 102% | 96.4% | 103% | 105% | 107% | 101% | 99.7% | > 10 µM | > 10 µM | > 10 µM | > 10 µM | > 10 µM | 0 | 0 | 0 | 0 | 0 |

Source: the supplement of paper PMC13380429
